These results are taken from patent US10501449B2 (priority 2018, dated 2019).

hROMK (human Kir1.1), sequence (P48048 whole entry): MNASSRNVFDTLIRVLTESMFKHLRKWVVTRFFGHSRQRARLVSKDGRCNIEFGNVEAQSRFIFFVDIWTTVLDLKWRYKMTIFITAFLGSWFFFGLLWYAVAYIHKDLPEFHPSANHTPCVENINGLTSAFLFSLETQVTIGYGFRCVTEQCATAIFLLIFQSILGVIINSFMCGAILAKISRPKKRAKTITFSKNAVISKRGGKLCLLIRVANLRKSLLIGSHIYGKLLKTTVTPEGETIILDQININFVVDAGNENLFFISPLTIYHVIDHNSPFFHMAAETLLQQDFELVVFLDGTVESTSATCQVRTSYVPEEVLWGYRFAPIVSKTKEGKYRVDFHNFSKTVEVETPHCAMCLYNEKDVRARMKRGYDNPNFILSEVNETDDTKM

One data set concerns the target hROMK (human Kir1.1) (Homo sapiens (Human), UniProt P48048). Kind of data set: cell-based. The settings on record: CHO T-Rex hROMK stable cell line; thallium flux; 10-point concentration response curve; read-out: Human ROMK Th Flux IC50.
Protocol: Solutions and reagents: Thallium flux assay was performed using FluxOR kit (F10017, Life Technologies). Loading buffer, assay buffer and stimulus buffer were prepared using kit components. HBSS (Hank's balanced salt solution, Cat#14025-092) was purchased separately from Life Technologies.
To prepare 10 ml of loading buffer: 10 μl of FluxOR dye (reconstituted in DMSO) was first added to 100 μl of powerload concentrate and this mix along with 100 μl of Probenicid (100×) was then added to 9.79 ml of HBSS. Assay buffer (10 ml) was prepared by addition of 2 ml of FluxOR chloride free buffer (5×), 100 μl of Probenicid (100×), and 0.2 ml of Ouabain (13.77 mM) to 7.7 ml of deionized water. Stimulus buffer was composed of 15 mM Tl2SO4, 0.75 mM K2SO4 in FluxOR chloride free buffer (diluted to 1× using deionized water). The final concentration of Tl2SO4 and K2SO4 in the assay plate was 3 mM and 0.15 mM, respectively.
Plating and induction of cells: The CHO T-Rex hROMK (human Kir1.1) stable cell line was maintained in Ham's F12 media supplemented with 10% FBS, 1% Penicillin-Streptomycin, 500 μg/ml Zeocin and 10 μg/ml Blasticidin at 37° C. in a 5% CO2 incubator. One day before the experiment, the cells were dissociated by incubation with Versene solution (15040-066, Life Technologies) for 10 minutes at 37° C. followed by addition of growth media. The cell suspension was centrifuged at 1200 rpm for 5 min. After discarding the supernatant, the cells were resuspended in fresh growth media and cell concentration was determined using a hemocytometer. Next, 0.5 μg/ml of Doxycycline was added to the cell suspension to induce hROMK channel expression and 50 μl (10,000 cells/well) of cell suspension was added to each well of a poly-D lysine coated 384 well black, optically clear bottom plate (6007718, Perkin Elmer). The assay plate was kept at 37° C. in a 5% CO2 incubator.
Assay protocol: On the day of experiment, media was removed and loading buffer was added (30 μl/well) to the assay plate. The cells were incubated in the loading buffer for 30 minutes at 37° C. The loading buffer was then replaced by assay buffer (30 μl/well) followed by addition of test compounds or controls. The cells were incubated with compounds for 30 minutes and the plate was then mounted on FlexStation (Molecular Devices) for fluorescence read out with excitation and emission wavelengths at 488 and 525 nm, respectively. Each well was read for 90 sec at 2 sec interval and the stimulus buffer was added after 20 seconds of baseline recording. The final DMSO concentration was either 0.5 or 1% in the assay plate. Positive and negative controls were defined by addition of DMSO or 3 μM of a standard ROMK inhibitor, respectively, to the wells instead of a test compound.
A 10-point concentration response curve was used to estimate the IC50 value of test compounds.
As for `Cc1cnc(-n2cc(CN3C[C@@H](c4ccc5c(c4C)COC5=O)N[C@@H](C)C3)cn2)cn1` [Example 206-I, 4-methyl-5-((2R,6S)-6-methyl-4-((1-(5-methylpyrazin-2-yl)-1H-pyrazol-4-yl)methyl)piperazin-2-yl)isobenzofuran-1(3H)-one], the IC50 was 82 nM. For the molecule `COc1ncc(-n2cc(CN3C[C@@H](c4ccc5c(c4C)COC5=O)N[C@@H](C)C3)cn2)cn1` [Example 208-I, 5-((2R,6S)-4-((1-(2-methoxypyrimidin-5-yl)-1H-pyrazol-4-yl)methyl)-6-methylpiperazin-2-yl)-4-methylisobenzofuran-1(3H)-one], the IC50 amounted to 190 nM. The same measure, in the same setting: with `Cc1ncc(-n2cc(CN3C[C@@H](c4ccc5c(c4C)COC5=O)N[C@@H](C)C3)cn2)cn1` [Example 209-I, 4-methyl-5-((2R,6S)-6-methyl-4-((1-(2-methylpyrimidin-5-yl)-1H-pyrazol-4-yl)methyl)piperazin-2-yl)isobenzofuran-1(3H)-one] the figure was 100 nM. Turning to `Cc1cn(-c2ncc(CN3CCO[C@H](c4ccc5c(c4C)COC5=O)C3)cn2)cn1` [Example 224-I, (R)-4-methyl-5-(4-((2-(4-methyl-1H-imidazol-1-yl)pyrimidin-5-yl)methyl)morpholin-2-yl)isobenzofuran-1(3H)-one], the IC50 was 27 nM. Still for that read-out and setting: the value for `Cc1cc(-n2cc(CN3CCC(=O)C(c4ccc5c(c4C)COC5=O)C3)cn2)ncc1C#N` (stereo not shown) [Example 232-I, 4-methyl-6-(4-((3-(4-methyl-1-oxo-1,3-dihydroisobenzofuran-5-yl)-4-oxopiperidin-1-yl)methyl)-1H-pyrazol-1-yl)nicotinonitrile] was 480 nM. On to `Cc1c([C@@H]2CN(Cc3cnc(-n4cncn4)nc3)CCN2)ccc2c1COC2=O` [Example 234-I, (R)-5-(4-((2-(1H-1,2,4-triazol-1-yl)pyrimidin-5-yl)methyl)piperazin-2-yl)-4-methylisobenzofuran-1(3H)-one], for which the IC50 is 78 nM.

As for `Cc1c([C@@H]2CN(Cc3ccc(-n4cnc(C(F)F)c4)nc3)CCN2)ccc2c1COC2=O` [Example 235-I, (R)-5-(4-((6-(4 (difluoromethyl)-1H-imidazol-1-yl)pyridin-3-yl)methyl)piperazin-2-yl)-4-methylisobenzofuran-1(3H)-one], the IC50 amounted to 83 nM. Same read-out and setting: with `Cc1c([C@@H]2CN(Cc3ccc(-c4ccc(=O)n(C)c4)nc3)C[C@H](C)N2)ccc2c1COC2=O` [Example 238-I, 1′-methyl-5-(((3S,5R)-3-methyl-5-(4-methyl-1-oxo-1,3-dihydroisobenzofuran-5-yl)piperazin-1-yl)methyl)-[2,3′-bipyridin]-6′(1′H)-one] the figure was 470 nM; with `Cc1cc(-n2ncc(CN3C[C@H](C)N(O)[C@H](c4ccc5c(c4C)COC5=O)C3)n2)ncc1C#N` [Example 246-I, 6-(4-(((3S,5R)-4-hydroxy-3-methyl-5-(4-methyl-1-oxo-1,3-dihydroisobenzofuran-5-yl)piperazin-1-yl)methyl)-2H-1,2,3-triazol-2-yl)-4-methylnicotinonitrile], 870 nM. Take `Cc1cc(-n2ccc(CN3C[C@@H](c4ccc5c(c4C)COC5=O)N[C@@H](C)C3)cc2=O)ncc1C#N` [Example 247-I, 4′-methyl-4-(((3S,5R)-3-methyl-5-(4-methyl-1-oxo-1,3-dihydroisobenzofuran-5-yl)piperazin-1-yl)methyl)-2-oxo-2H-[1,2′-bipyridine]-5′-carbonitrile]: the IC50 was 330 nM. Consider `Cc1cc(N2CCCS2(=O)=O)cc(-n2cc(CN3C[C@@H](c4ccc5c(c4C)COC5=O)N[C@@H](C)C3)cn2)n1` [Example 253-I, 5-((2R,6S)-4-((1-(4-(1,1-dioxidoisothiazolidin-2-yl)-6-methylpyridin-2-yl)-1H-pyrazol-4-yl)methyl)-6-methylpiperazin-2-yl)-4-methylisobenzofuran-1(3H)-one], for which the IC50 was 400 nM. Still for that read-out and setting: the value for `COc1cc(N2CC(CN3C[C@@H](c4ccc5c(c4C)COC5=O)N[C@@H](C)C3)CC2=O)ccn1` (stereo partly drawn) [Example 254-I, 1-(2-methoxypyridin-4-yl)-4-(((3S,5R)-3-methyl-5-(4-methyl-1-oxo-1,3-dihydroisobenzofuran-5-yl)piperazin-1-yl)methyl)pyrrolidin-2-one] was 1600 nM; that for `CNC(=O)c1nn(-c2cc(OC)c(C#N)cn2)cc1CN1CCN[C@H](c2ccc3c(c2C)COC3=O)C1` [Example 260-I, (R)-1-(5-cyano-4-methoxypyridin-2-yl)-N-methyl-4-((3-(4-methyl-1-oxo-1,3-dihydroisobenzofuran-5-yl)piperazin-1-yl)methyl)-1H-pyraozl-3-carboxamide] was 430 nM. The same measure, in the same setting: the value for `COc1cc(-n2cc(CN3CCN[C@H](c4ccc5c(c4C)COC5=O)C3)c(C(N)=O)n2)ncc1C#N` [Example 262-I, (R)-1-(5-cyano-4-methoxypyridin-2-yl)-4-((3-(4-methyl-1-oxo-1,3-dihydroisobenzofuran-5-yl)piperazin-1-yl)methyl)-1H-pyrazole-3-carboxamide] was 120 nM; that for `Cc1noc(-c2ccc(CN3CCN[C@H](c4ccc5c(c4C)COC5=O)C3)cn2)n1` [Example 264-I, (R)-4-methyl-5-(4-((6-(3-methyl-1,2,4-oxadiazol-5-yl)pyridin-3-yl)methyl)piperazin-2-yl)isobenzofuran-1(3H)-one] was 580 nM; that for `Cc1c([C@@H]2CN(Cc3cnn(-c4ccn(C(F)F)c(=O)c4)n3)C[C@H](C)N2)ccc2c1COC2=O` [Example 270-I, 1-(difluoromethyl)-4-(4-(((3S,5R)-3-methyl-5-(4-methyl-1-oxo-1,3-dihydroisobenzofuran-5-yl)piperazin-1-yl)methyl)-2H-1,2,3-triazol-2-yl)pyridin-2(1H)-one] was 580 nM. In the case of `Cc1c([C@@H]2CN(Cc3cn(-c4ccnc(C(F)F)n4)cn3)C[C@H](C)N2)ccc2c1COC2=O` [Example 271-I, 5-((2R,6S)-4-((1-(2-(difluoromethyl)pyrimidin-4-yl)-1H-imidazol-4-yl)methyl)-6-methylpiperazin-2-yl)-4-methylisobenzofuran-1(3H)-one], the IC50 turned out to be 100 nM.

The target of another data set is hERG channels (Homo sapiens (Human), UniProt Q12809). Kind of data set: hERG Manual Patch Clamp Assay. Format: cell-based. The settings on record: human, HEK 293 cells stably expressing hERG channels, pH 7.4, 1 uM, read-out: hERG EP % Inh @ 1 uM.
hERG channels, sequence (Q12809 whole entry): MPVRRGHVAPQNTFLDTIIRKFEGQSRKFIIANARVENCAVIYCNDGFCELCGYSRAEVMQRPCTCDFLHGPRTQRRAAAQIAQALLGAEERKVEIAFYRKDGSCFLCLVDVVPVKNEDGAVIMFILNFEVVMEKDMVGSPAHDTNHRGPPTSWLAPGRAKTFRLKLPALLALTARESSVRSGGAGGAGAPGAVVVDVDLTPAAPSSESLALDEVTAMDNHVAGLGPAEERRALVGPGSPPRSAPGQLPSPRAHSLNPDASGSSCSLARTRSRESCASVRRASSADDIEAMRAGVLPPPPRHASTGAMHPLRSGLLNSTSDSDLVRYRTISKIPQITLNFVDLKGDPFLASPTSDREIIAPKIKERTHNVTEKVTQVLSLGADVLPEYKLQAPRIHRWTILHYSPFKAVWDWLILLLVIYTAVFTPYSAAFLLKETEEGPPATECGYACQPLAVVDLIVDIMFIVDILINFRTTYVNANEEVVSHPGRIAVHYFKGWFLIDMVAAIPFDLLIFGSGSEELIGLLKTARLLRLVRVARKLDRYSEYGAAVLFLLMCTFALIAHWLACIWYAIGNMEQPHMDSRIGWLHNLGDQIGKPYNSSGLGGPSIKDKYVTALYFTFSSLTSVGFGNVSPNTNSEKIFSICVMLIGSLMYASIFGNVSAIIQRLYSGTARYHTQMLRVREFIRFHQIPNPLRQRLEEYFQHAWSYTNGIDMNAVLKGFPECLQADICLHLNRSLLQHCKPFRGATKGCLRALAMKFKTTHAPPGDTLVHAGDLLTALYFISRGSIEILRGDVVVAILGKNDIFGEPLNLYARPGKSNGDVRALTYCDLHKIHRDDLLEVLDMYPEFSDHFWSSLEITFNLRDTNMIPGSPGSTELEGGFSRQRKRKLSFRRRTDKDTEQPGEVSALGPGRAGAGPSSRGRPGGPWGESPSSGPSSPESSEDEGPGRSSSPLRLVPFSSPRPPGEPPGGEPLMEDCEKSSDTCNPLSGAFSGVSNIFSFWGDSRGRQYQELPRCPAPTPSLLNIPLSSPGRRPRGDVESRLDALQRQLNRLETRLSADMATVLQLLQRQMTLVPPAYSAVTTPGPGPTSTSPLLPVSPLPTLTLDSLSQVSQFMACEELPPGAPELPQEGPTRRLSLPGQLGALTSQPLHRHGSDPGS
Consider `COc1cc(-n2cc(CN3CC(CO)NC(c4ccc5c(c4C)COC5=O)C3)cn2)ncc1C#N` (single isomer, unassigned) [Example 89-III], for which the inhibition at 1 µM was determined as 14%.

As to `COc1cc(N2CCC(CN3CCN[C@H](c4ccc5c(c4C)COC5=O)C3)C2)ncc1C#N` (single isomer, unassigned) [Example 154-I], the inhibition at 1 µM was determined as 43%.

Regarding `Cc1cc(-n2cc(CN3CC(c4ccc5c(c4C)COC5=O)OC(C)(C)C3)cn2)ncc1C#N` (single isomer, unassigned) [Example 256-II, 6-(4-((2,2-dimethyl-6-(4-methyl-1-oxo-1,3-dihydroisobenzofuran-5-yl)morpholino)methyl)-1H-pyrazol-1-yl)-4-methylnicotinonitrile], the inhibition at 1 µM was determined as 13%. `Cc1cc(-n2cc(CN3CC(=O)N[C@H](c4ccc5c(c4C)COC5=O)C3)cn2)ncc1C#N` [Example 15-I, (R)-4-methyl-6-(4-((3-(4-methyl-1-oxo-1,3-dihydroisobenzofuran-5-yl)-5-oxopiperazin-1-yl)methyl)-1H-pyrazol-1-yl)nicotinonitrile]: the inhibition at 1 µM was 5.8%. On the same count and under the same terms, with `Cc1c([C@@H]2CN(Cc3cnn(-c4ccc(C#N)nc4)c3)CCO2)ccc2c1COC2=O` [Example 48-I, (R)-5-(4-((2-(4-methyl-1-oxo-1,3-dihydroiso-benzofuran-5-yl)morpho-lino)methyl)-1H-pyrazol-1-yl)picolinonitrile] the figure was 78%; with `COc1cc(-n2cc(CN3CCO[C@H](c4ccc5c(c4C)COC5=O)C3)cn2)ccc1C#N` [Example 49-I, (R)-2-methoxy-4-(4-((2-(4-methyl-1-oxo-1,3-dihydroisobenzofuran-5-yl)morpholino)methyl)-1H-pyrazol-1-yl) benzonitrile], 27%; with `Cc1cc(-n2cnc(CN3C[C@@H](c4ccc5c(c4C)COC5=O)N[C@@H](C)C3)c2)ncc1C#N` [Example 98-I, 4-methyl-6-(4-(((3S,5R)-3-methyl-5-(4-methyl-1-oxo-1,3-dihydroisobenzofur-an-5-yl)piperazin-1-yl)methyl)-1H-imidazol-1-yl)nicotinonitrile], 9.3%. On the same count and under the same terms, with `COc1cc(-n2ncc(CN3CC[C@@H](O)[C@H](c4ccc5c(c4C)COC5=O)C3)n2)ncc1C#N` [Example 111-I, 6-(4-(((3R,4R)-4-hydroxy-3-(4-methyl-1-oxo-1,3-dihydroisobenzofur-an-5-yl)piperidin-1-yl)methyl)-2H-1,2,3-triazol-2-yl)-4-methoxynicotinonit-rile] the figure was 5.1%; with `Cc1cc(-n2cc(CN3CCNC(c4ccc5c(c4C)COC5=O)C3C)cn2)ncc1C#N` (stereo not shown) [Example 115-I, 4-methyl-6-(4-((2-methyl-3-(4-methyl-1-oxo-1,3-dihydroisobenzofuran-5-yl)piperazin-1-yl)methyl)-1H-pyrazol-1-yl)nicotinonitrile], 45%.

Consider `Cc1cn(-c2ccc(CN3CCN[C@H](c4ccc5c(c4C)COC5=O)C3)nn2)cn1` [Example 153-I, (R)-4-methyl-5-(4-((6-(4-methyl-1H-imidazol-1-yl)pyridazin-3-yl)methyl)piperazin-2-yl)isobenzofuran-1(3H)-one], for which the inhibition at 1 µM turned out to be 10%. Still for that read-out and setting: with `Cc1cc(-n2nc(C)c(CN3CCN[C@H](c4ccc5c(c4C)COC5=O)C3)n2)ncc1C#N` [Example 169-I, (R)-4-methyl-6-(4-methyl-5-((3-(4-methyl-1-oxo-1,3-dihydroisobenzofuran-5-yl)piperazin-1-yl)methyl)-2H-1,2,3-triazol-2-yl)nicotinonitrile] the figure was 12%.
